Test results reported in US20260116867A1, “PROTEOLYSIS TARGETING CHIMERAS FOR HUMAN PREGNANE X RECEPTOR AND FOR DEGRADATION OF GSPT1” (ST. JUDE CHILDREN'S RESEARCH HOSPITAL, priority 2022, published 2026).

Test system: SNU—C4 3xFLAG-PXR KI cells
Assay: TMT-MS whole-proteome quantification in SNU—C4 3xFLAG-PXR KI cells
Format: cell-based, human
Conditions: 5 μM, 12 h vs DMSO; 9,692 proteins detected
Method: The next day, 0.5% DMSO or 5 μM SJPYT-195 was added to triplicate dishes. After 12 h, the media were removed, cells were washed twice with ice cold PBS, 500 μL of 50 mM HEPES (pH 8.0) and 8 M urea was added to each dish, cells were scraped and transferred to 1.5 mL tubes, and the tubes were frozen on dry ice and stored at −80° C. Processing for TMT-MS was conducted according to a previously optimized protocol. To profile the whole proteome, the cell lysates (approximately 100 μg of protein per sample) were proteolyzed with Lys-C(Wako) at an enzyme-to-substrate ratio of 1:100 (w/w) for 3 h at room temperature. Samples were diluted with 50 mM HEPES (pH 8.5) to a final 2 M urea concentration. […]
Dried peptides were resuspended in 50 μL 100 mM HEPES (pH 8.5) and labeled with TMTpro 16plex Label Reagents [Thermo Fisher Scientific, 10 μg/μL in 100% ACN, 1:2 (w/w) ratio, room temperature for 1 h]. […] Fractions were dried in SpeedVac and resuspended in 5 μL 5% FA/1% trifluoroacetic acid immediately prior to mass spectrometry and quantitation analysis. […]
MS raw files were converted to mzXML files, and database searches were performed against Uniprot HUMAN protein database using our in-house developed JUMP pipeline. […] TMT-based quantification and statistical analysis were performed based on our previous method. […]

COc1ccc(OC)c(-n2nnc(C(=O)Nc3cc(Oc4cccc5c4C(=O)N(C4CCC(=O)NC4=O)C5=O)cc(C(C)(C)C)c3)c2C)c1 (stereo not shown) [Compound M4, N-(3-(tert-butyl)-5-((2-(2,6-dioxopiperidin-3-yl)-1,3-dioxoisoindolin-4-yl)oxy)phenyl)-1-(2,5-dimethoxyphenyl)-5-methyl-1H-1,2,3-triazole-4-carboxamide]
proteins changed at whole-proteome scale (selectivity): five down-regulated proteins (GSPT1, GSPT2, ZFP91, CYP1A1, and BRIP1) and one upregulated protein (FOS)
